Measurements reported in US20250032623A1, “HETEROBIFUNCTIONAL COMPOUNDS AND THEIR USE IN TREATING DISEASE” (HALDA THERAPEUTICS OPCO, INC., priority 2021, published 2025).

Experiments:
HEK293 cells = assay: Cellular growth inhibition assay (CellTiter-Glo), HEK293 cells; assay type: cell-based; details: Homo sapiens, 72 h, three days compound treatment, CellTiter-Glo 2.0, read-out: CTG HEK293 GI50
Outline: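 HEK293 or HeLa cells seeded at 500 cells/well in DMEM with 10% FBS, treated after 24 h with titrated compound for three days at 37 °C, 5% CO2. CellTiter-Glo 2.0 luminescence read on Day 0 and Day 3, normalized to DMSO, four-parameter fit giving GI50.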

HeLa cells = assay: Cellular growth inhibition assay (CellTiter-Glo), HeLa cells; assay type: cell-based; details: Homo sapiens, 72 h, three days compound treatment, CellTiter-Glo 2.0, read-out: CTG HELA GI50
Procedure: Exemplary compounds were tested for ability to inhibit the proliferation of HEK293 cells or HeLa cells.
HEK293 and HeLa cells were cultured in DMEM medium supplemented with 10% fetal bovine serum and 1% Penn/Strep. Cells were seeded in white 384-well plates at 500 cells/well in […] complete medium. Following seeding, plates were spun at 300×g for three minutes and cultured at 37° C. with 5% CO2 in a humidified tissue culture incubator.
After 24 hours, compounds were titrated in 100% DMSO and diluted in complete cell culture medium. […] of compound/media mixture was added to cells to bring total volume in well to […]. DMSO alone was used as a negative control. P lates were then spun at 300×g for three minutes and stored at 37° C. with 5% CO2 for three days.
On Day 0 and Day 3 of compound treatment, cell viability was quantified with CellTiter-Glo 2.0 reagent (Promega). After equilibrating microplates at room temperature for 30 minutes, 25 μL CellTiter-Glo 2.0 reagent was dispensed into each well to bring total volume to […]. Plates were mixed on shaker for 2 minutes at 500 rpm, followed by a 10-minute incubation at room temperature. Following a quick spin, luminescence readings were measured with an EnVision Plate Reader. Data was normalized to DMSO treated Day 0 and Day 3 readings. A four-parameter non-linear regression curve fit was applied to dose-response data in GraphPad Prism data analysis software to determine the half maximal growth inhibitory concentration (GI50) for each compound.

EGFR = target: T1, EGFR (Homo sapiens, UniProt P00533); assay: KdELECT binding assay, EGFR
T1 construct: purchased
Outline: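 Competition binding: DNA- or T7 phage-tagged EGFR was incubated 1 h at room temperature with immobilized ligand beads and an 11-point 3-fold compound series (0.9% DMSO final). Bead-bound kinase was eluted and quantified by qPCR to derive Kd.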

[1] = target: T2, EGFR T790M, L858R (amino acids 669-1011 Accession Number NP_005219.2) (Homo sapiens, UniProt P00533, L858R/T790M); assay: KdELECT binding assay (Eurofins Discovery), EGFR T790M, L858R; details: read-out: EGFR DM Kd
T2 construct: purchased Eurofins Discovery; host or cells: mammalian cells (HEK-293)
Procedure: (§1) Exemplary compounds were tested for ability to bind to EGFR WT (amino acids 669-1011, Accession Number NP_005219.2) or EGFR T790M, L858R (amino acids 669-1011 Accession Number NP_005219.2) expressed from bacteria or mammalian cells, respectively. Compounds were tested using the KdELECT assay at Eurofins Discovery.
(§2) Kinase-tagged T7 phage strains were prepared in an E. coli host derived from the BL21 strain. E. coli were grown to log-phase and infected with T7 phage and incubated with shaking at 32° C. until lysis. The lysates were centrifuged and filtered to remove cell debris. The remaining kinases were produced in HEK-293 cells and subsequently tagged with DNA for qPCR detection. Streptavidin-coated magnetic beads were treated with biotinylated small molecule ligands for 30 minutes at room temperature to generate affinity resins for kinase assays. The liganded beads were blocked with excess biotin and washed with blocking buffer (SeaBlock (Pierce), 1% BSA, 0.05% Tween 20, 1 mM DTT) to remove unbound ligand and to reduce non-specific binding. Binding reactions were assembled by combining kinases, liganded affinity beads, and test compounds in 1× binding buffer (20% SeaBlock, 0.17×PBS, 0.05% Tween 20, 6 mM DTT). Test compounds were prepared as 111× stocks in 100% DMSO. Kd values were determined using an 11-point 3-fold compound dilution series with three DMSO control points. All compounds for Kd measurements are distributed by acoustic transfer (non-contact dispensing) in 100% DMSO. The compounds were then diluted directly into the assays such that the final concentration of DMSO was 0.9%. All reactions performed in polypropylene 384-well plate. Each was a final volume of 0.02 mL. The assay plates were incubated at room temperature with shaking for 1 hour and the affinity beads were washed with wash buffer (1× PBS, 0.05% Tween 20). The beads were then re-suspended in elution buffer (1× PBS, 0.05% Tween 20, 0.5 μM nonbiotinylated affinity ligand) and incubated at room temperature with shaking for 30 minutes. The kinase concentration in the eluates was measured by qPCR.

[2] = target: T3, EGFR WT (amino acids 669-1011, Accession Number NP_005219.2) (Homo sapiens, UniProt P00533); assay: KdELECT binding assay (Eurofins Discovery), EGFR WT
T3 construct: purchased Eurofins Discovery; host or cells: bacteria (E. coli, BL21-derived, T7 phage)
Procedure: as §1, §2

T2 sequence (P00533 669-1011 T790M/L858R): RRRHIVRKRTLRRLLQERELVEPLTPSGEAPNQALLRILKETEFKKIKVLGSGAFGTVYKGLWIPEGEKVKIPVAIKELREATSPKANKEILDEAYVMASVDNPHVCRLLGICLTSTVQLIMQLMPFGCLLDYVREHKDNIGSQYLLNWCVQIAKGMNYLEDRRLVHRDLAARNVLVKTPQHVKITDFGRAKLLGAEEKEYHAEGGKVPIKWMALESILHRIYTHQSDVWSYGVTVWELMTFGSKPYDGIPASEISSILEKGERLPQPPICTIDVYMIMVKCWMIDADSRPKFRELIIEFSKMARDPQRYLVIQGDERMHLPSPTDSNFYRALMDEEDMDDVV
T1 sequence (P00533 25-1210): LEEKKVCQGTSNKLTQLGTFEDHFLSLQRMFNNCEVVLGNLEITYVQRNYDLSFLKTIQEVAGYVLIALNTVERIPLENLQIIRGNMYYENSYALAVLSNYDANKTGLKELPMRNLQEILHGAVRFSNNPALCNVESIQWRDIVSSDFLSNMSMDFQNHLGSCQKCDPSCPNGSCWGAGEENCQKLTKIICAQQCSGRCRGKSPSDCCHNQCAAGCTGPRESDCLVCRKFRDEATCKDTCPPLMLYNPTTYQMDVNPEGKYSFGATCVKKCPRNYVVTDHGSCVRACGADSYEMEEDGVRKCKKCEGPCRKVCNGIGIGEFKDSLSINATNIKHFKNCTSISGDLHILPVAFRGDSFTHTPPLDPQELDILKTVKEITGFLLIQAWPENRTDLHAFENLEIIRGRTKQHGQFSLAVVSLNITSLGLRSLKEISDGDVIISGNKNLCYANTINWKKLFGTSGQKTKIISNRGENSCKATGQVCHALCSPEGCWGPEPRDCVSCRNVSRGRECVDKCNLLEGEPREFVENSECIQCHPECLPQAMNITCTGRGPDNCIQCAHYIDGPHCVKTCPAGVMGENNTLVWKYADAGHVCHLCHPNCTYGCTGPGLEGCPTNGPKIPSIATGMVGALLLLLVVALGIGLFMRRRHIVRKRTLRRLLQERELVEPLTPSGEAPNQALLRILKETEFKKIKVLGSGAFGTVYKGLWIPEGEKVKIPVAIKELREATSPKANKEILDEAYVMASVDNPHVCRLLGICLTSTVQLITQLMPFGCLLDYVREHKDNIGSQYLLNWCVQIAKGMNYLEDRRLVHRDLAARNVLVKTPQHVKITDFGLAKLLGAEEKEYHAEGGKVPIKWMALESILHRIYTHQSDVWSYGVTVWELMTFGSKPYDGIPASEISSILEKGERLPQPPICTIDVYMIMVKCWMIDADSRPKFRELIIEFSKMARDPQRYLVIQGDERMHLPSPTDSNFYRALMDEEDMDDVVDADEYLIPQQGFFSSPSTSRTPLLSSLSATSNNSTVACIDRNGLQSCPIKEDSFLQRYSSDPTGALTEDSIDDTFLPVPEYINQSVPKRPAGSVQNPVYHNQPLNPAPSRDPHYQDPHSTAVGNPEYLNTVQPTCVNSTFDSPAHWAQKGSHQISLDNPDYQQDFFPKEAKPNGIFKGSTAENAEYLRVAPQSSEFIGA
T3 sequence (P00533 669-1011): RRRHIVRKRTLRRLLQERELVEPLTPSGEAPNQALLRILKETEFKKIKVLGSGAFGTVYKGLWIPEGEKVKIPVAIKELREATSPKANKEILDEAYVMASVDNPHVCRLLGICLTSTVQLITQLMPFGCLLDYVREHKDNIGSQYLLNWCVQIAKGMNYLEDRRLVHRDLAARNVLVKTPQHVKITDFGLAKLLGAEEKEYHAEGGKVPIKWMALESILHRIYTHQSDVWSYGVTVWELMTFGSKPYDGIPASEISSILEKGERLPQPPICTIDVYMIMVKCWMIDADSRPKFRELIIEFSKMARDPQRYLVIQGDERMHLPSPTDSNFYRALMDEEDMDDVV

Row | GI50 (HeLa cells) [nM] | Kd (EGFR) [nM] | Kd [1] [nM] | Kd [2] [nM] | Structure (SMILES) | GI50 (HEK293 cells) [nM]
1 | < 500 | < 50 | < 50 | < 50 | C=CC(=O)N[C@@H]1CN(c2nc(Nc3cn(CCCN4CCN(CCCNC(=O)c5ccc(Nc6ncc7c(n6)N(C6CCCC6)[C@H](CC)C(=O)N7C)c(OC)c5)CC4)nc3OC)c3ncn(C)c3n2)C[C@H]1F [Compound I-136, 4-[[(7R)-8-cyclopentyl-7-ethyl-5-methyl-6-oxo-7H-pteridin-2-yl]amino]-N-[3-[4-[3-[4-[[2-[(3R,4R)-3-fluoro-4-(prop-2-enoylamino)pyrrolidin-1-yl]-9-methyl-purin-6-yl]amino]-3-methoxy-pyrazol-1-yl]propyl]piperazin-1-yl]propyl]-3-methoxy-benzamide] | 500 to 1500
2 | 500 to 1500 | 500 to 2500 | 50 to 500 | 500 to 2500 | CCC1C(=O)N(C)c2cnc(Nc3ccc(C(=O)NCCOCCOCCOCCOCCN(C)CC=CC(=O)NC4CN(c5nc(Nc6cn(C)nc6OC)c6ncn(C)c6n5)CC4F)cc3OC)nc2N1C1CCCC1 [Compound I-126, 4-[[(7R)-8-cyclopentyl-7-ethyl-5-methyl-6-oxo-7H-pteridin-2-yl]amino]-N-[2-[2-[2-[2-[2-[[(E)-4-[ [(3R,4R)-4-fluoro-1-1[6-1[(3-methoxy-1-methyl-pyrazol-4-yl)amino]-9-methyl-purin-2-yl]pyrrolidin-3-yl]amino]-4-oxo-but-2-enyl]-methyl-amino]ethoxy]ethoxy]ethoxy]ethoxy]ethyl]-3-methoxy-benzamide] | < 500
3 | 500 to 1500 | 500 to 2500 | 50 to 500 | 500 to 2500 | CC[C@@H]1C(=O)N(C)c2cnc(Nc3ccc(C(=O)NCCOCCOCCOCCOCCN(C)C/C=C/C(=O)N[C@@H]4CN(c5nc(Nc6cn(C)nc6OC)c6ncn(C)c6n5)C[C@H]4F)cc3OC)nc2N1C1CCCC1 [Compound I-129, 4-[[(7R)-8-cyclopentyl-7-ethyl-5-methyl-6-oxo-7H-pteridin-2-yl]amino]-N-[2-[2-[2-[2-[2-[[(E)-4-[[(3R,4R)-4-fluoro-1-[6-[(3-methoxy-1-methyl-pyrazol-4-yl)amino]-9-methyl-purin-2-yl]pyrrolidin-3-yl]amino]-4-oxo-but-2-enyl]-methyl-amino]ethoxy]ethoxy]ethoxy]ethoxy]ethyl]-3-methoxy-benzamide] | 500 to 1500
4 | > 5000 | < 50 | < 50 | < 50 | C=CC(=O)N[C@@H]1CN(c2nc(Nc3cn(CCCON(C)C(=O)N4N=C(c5cc(F)ccc5F)S[C@@]4(CCCN)c4ccccc4)nc3OC)c3ncn(C)c3n2)C[C@H]1F [Compound I-135, (2S)-2-(3-aminopropyl)-5-(2,5-difluorophenyl)-N-[3-[4-[[2-[(3R,4R)-3-fluoro-4-(prop-2-enoylamino)pyrrolidin-1-yl]-9-methyl-purin-6-yl]amino]-3-methoxy-pyrazol-1-yl]propoxy]-N-methyl-2-phenyl-1,3,4-thiadiazole-3-carboxamide] | > 5000
5 | 1500 to 5000 | < 50 | < 50 | < 50 | C=CC(=O)N[C@@H]1CN(c2nc(Nc3cn(CCCN4CCN(CCCON(C)C(=O)N5N=C(c6cc(F)ccc6F)S[C@@]5(CCCN)c5ccccc5)CC4)nc3OC)c3ncn(C)c3n2)C[C@H]1F [Compound I-137, (2S)-2-(3-aminopropyl)-5-(2,5-difluorophenyl) —N-[3-[4-[3-[4-[[2-[(3R,4R)-3-fluoro-4-(prop-2-enoylamino)pyrrolidin-1-yl]-9-methyl-purin-6-yl]amino]-3-methoxy-pyrazol-1-yl]propyl]piperazin-1-yl]propoxy]-N-methyl-2-phenyl-1,3,4-thiadiazole-3-carboxamide] | > 5000
